Key:
[1] = system: isolated mouse liver mitochondria, complex I; assay: Oxygen consumption through complex I; conditions: for O2 cons CI EC20: inhibition of oxygen consumption, malate + glutamate + ADP, 2µM rotenone = 100%; for effect on oxygen consumption (in words): with malate/glutamate and/or succinate
[2] = system: isolated mouse liver mitochondria; assay: Loss of mitochondrial transmembrane potential; format: biochemical; conditions: for ΔΨm loss EC20: 20% of maximal loss of ΔΨm (50µM mClCCP = 100%), 30-min incubation
[3] = system: isolated mouse liver mitochondria; assay: Cytochrome c release; format: biochemical; conditions: without Ca2+ pulse
[4] = system: isolated mouse liver mitochondria; assay: Mitochondrial swelling; conditions: without Ca2+ pulse
[5] = short incubation of isolated mitochondria; ref Kamel et al. (2012); cited from earlier work

Row | SMILES | O2 cons CI EC20 [1] | ΔΨm loss EC20 [2] | also measured
1 | O=P(O)(O)C(Cl)(Cl)P(=O)(O)O [Clodronate] | 227.2 µM | > 400 µM | –
2 | COc1cc(/C=C/C(=O)CC(=O)/C=C/c2ccc(O)c(OC)c2)ccc1O [Curcumin] | > 200 µM | > 200 µM | –
3 | CC(C)(S)[C@@H](N)C(=O)O [D-penicillamine] | > 800 µM | > 400 µM | –
4 | Nc1ccc(S(=O)(=O)c2ccc(N)cc2)cc1 [Dapsone] | 205.5 µM | > 400 µM | –
5 | C[C@@H]1C[C@H]2[C@@H]3CCC4=CC(=O)C=C[C@]4(C)[C@@]3(F)[C@@H](O)C[C@]2(C)[C@@]1(O)C(=O)CO [Dexamethasone] | > 200 µM | > 200 µM | –
6 | O=C(O)Cc1ccccc1Nc1c(Cl)cccc1Cl [Diclofenac] | 29.8 µM | 137.9 µM | induction of cytochrome c release (in words) [3]: unable to induce
7 | Cc1c(N(C)CS(=O)(=O)[O-])c(=O)n(-c2ccccc2)n1C.[Na+] [Dipyrone] | 107.3 µM | 354.4 µM | –
8 | C#Cc1cccc(Nc2ncnc3cc(OCCOC)c(OCCOC)cc23)c1 [Erlotinib] | – | 195.9 µM | effect on oxygen consumption (in words) [1]: increased oxygen consumption
9 | CC[C@H]1OC(=O)[C@H](C)[C@@H](O[C@H]2C[C@@](C)(OC)[C@@H](O)[C@H](C)O2)[C@H](C)[C@@H](O[C@@H]2O[C@H](C)C[C@H](N(C)C)[C@H]2O)[C@](C)(O)C[C@@H](C)C(=O)[C@H](C)[C@@H](O)[C@]1(C)O [Erythromycin] | 27.9 µM | > 400 µM | –
10 | CCOC(=O)c1ccc(O)cc1 [Ethyl paraben] | 47.8 µM | 297.5 µM | –
11 | OC(Cn1cncn1)(Cn1cncn1)c1ccc(F)cc1F [Fluconazole] | 186.6 µM | 512.7 µM | –
12 | Nc1nc2ncc(CNc3ccc(C(=O)N[C@@H](CCC(=O)O)C(=O)O)cc3)nc2c(=O)[nH]1 [Folic acid] | 213.0 µM | 276.2 µM | –
13 | O=C(O)c1cc(O)c(O)c(O)c1 [Gallic acid] | 153.9 µM | > 200 µM | –
14 | CC(C)Cc1ccc(C(C)C(=O)O)cc1 (centres unmarked) [Ibuprofen] | 132.1 µM | 355.9 µM | –
15 | CC(=O)N1CCN(c2ccc(OCC3COC(Cn4ccnc4)(c4ccc(Cl)cc4Cl)O3)cc2)CC1 (centres unmarked) [Ketoconazole] | 2.9 µM | 243.0 µM | –
16 | Nc1ccn([C@@H]2CS[C@H](CO)O2)c(=O)n1 [Lamivudine] | 317.4 µM | 347.2 µM | –
17 | CCN(CC)CC(=O)Nc1c(C)cccc1C [Lidocaine] | – | 339.5 µM | effect on oxygen consumption (in words) [1]: increased oxygen consumption
18 | CC[C@H](C)C(=O)O[C@H]1C[C@@H](C)C=C2C=C[C@H](C)[C@H](CC[C@@H]3C[C@@H](O)CC(=O)O3)[C@H]21 [Lovastatin] | 6.2 µM | 43.6 µM | –
19 | Cc1ccc(Nc2c(F)cccc2Cl)c(CC(=O)O)c1 [Lumiracoxib] | 12.0 µM | 148.8 µM | –
20 | [Cl][Mn][Cl] [Manganese chloride] | > 400 µM | > 800 µM | –
21 | CN(C)C(=N)N=C(N)N [Metformin] | 351.8 µM | 388.4 µM | –
22 | COC(=O)c1ccc(O)cc1 [Methyl paraben] | 94.8 µM | > 200 µM | –
23 | C[C@](N)(Cc1ccc(O)c(O)c1)C(=O)O [Methyldopa] | 63.1 µM | > 400 µM | –
24 | CCOC(=O)[N-]c1cn(N2CCOCC2)n[o+]1 [Molsidomine] | > 200 µM | > 400 µM | –
25 | C=CCN1CC[C@]23c4c5ccc(O)c4O[C@H]2C(=O)CC[C@@]3(O)[C@H]1C5 [Naloxone] | > 400 µM | 298.7 µM | –

Row | SMILES | O2 cons CI EC20 [1] | ΔΨm loss EC20 [2] | also measured
26 | CN1CCC[C@H]1c1cccnc1 [Nicotine] | 312 µM | > 400 µM | –
27 | O=C(N/N=C/c1ccc([N+](=O)[O-])o1)c1ccc(O)cc1 [Nifuroxazide] | 3.7 µM | 388.2 µM | –
28 | O=C1CN(/N=C/c2ccc([N+](=O)[O-])o2)C(=O)N1 [Nitrofurantoin] | 8.7 µM | 442.5 µM | –
29 | CO[C@@H]1[C@@H](OC(N)=O)[C@@H](O)[C@H](Oc2ccc3c(O)c(NC(=O)c4ccc(O)c(CC=C(C)C)c4)c(=O)oc3c2C)OC1(C)C [Novobiocin] | 173.5 µM | 351.6 µM | –
30 | CCN(CC)CC#CCOC(=O)C(O)(c1ccccc1)C1CCCCC1 (centres unmarked) [Oxybutynine] | 115.4 µM | 178.3 µM | –
31 | C#CCN(C)Cc1ccccc1 [Pargyline] | 206.8 µM | 243 µM | –
32 | C1CCC(C(CC2CCCCN2)C2CCCCC2)CC1 (centres unmarked) [Perhexiline] | 87.7 µM | 3.2 µM | induction of mitochondrial swelling (in words) [4]: induced mitochondrial swelling and cytochrome c release when very low concentrations were used; induction of cytochrome c release (in words) [3]: induced mitochondrial swelling and cytochrome c release when very low concentrations were used
33 | Oc1cc(O)cc(O)c1 [Phloroglucinol] | > 400 µM | > 800 µM | –
34 | CN1C(C(=O)Nc2ccccn2)=C(O)c2ccccc2S1(=O)=O [Piroxicam] | 6.6 µM | 101.7 µM | –
35 | CCCOC(=O)c1ccc(O)cc1 [Propyl paraben] | 28.4 µM | 162.8 µM | –
36 | NC(=O)c1cnccn1 [Pyrazinamide] | 190.9 µM | > 400 µM | –
37 | CNC(=C[N+](=O)[O-])NCCSCc1ccc(CN(C)C)o1 [Ranitidine] | 97.3 µM | 368.1 µM | –
38 | O=C1NS(=O)(=O)c2ccccc21 [Saccharin] | 179.4 µM | > 400 µM | –
39 | O=C(O)c1ccccc1O [Salicylic acid] | 120.9 µM | 304.3 µM | –
40 | CC(C)(C)NC(=O)[C@@H]1C[C@@H]2CCCC[C@@H]2CN1C[C@@H](O)[C@H](Cc1ccccc1)NC(=O)[C@H](CC(N)=O)NC(=O)c1ccc2ccccc2n1 [Saquinavir] | – | 10.3 µM | effect on oxygen consumption (in words) [1]: increased oxygen consumption; concentrations collapsing the ΔΨm and altering the mitochondrial respiration ([2]; ΔΨm and respiration): lower than 50 μM
41 | CN[C@@H]1[C@H](O)[C@H](NC)[C@H]2O[C@@]3(O)C(=O)C[C@@H](C)O[C@H]3O[C@@H]2[C@H]1O [Spectinomycin] | – | > 400 µM | effect on oxygen consumption (in words) [1]: increased oxygen consumption
42 | OC[C@H]1O[C@@](CO)(O[C@H]2O[C@H](CO)[C@@H](O)[C@H](O)[C@H]2O)[C@@H](O)[C@@H]1O [Sucrose] | > 800 µM | > 800 µM | –
43 | Cc1cc(NS(=O)(=O)c2ccc(N)cc2)no1 [Sulfamethoxazole] | > 400 µM | > 400 µM | –
44 | CC1=C(CC(=O)O)c2cc(F)ccc2/C1=C\c1ccc([S+](C)[O-])cc1 (centres unmarked) [Sulindac] | 35.6 µM | > 200 µM | –
45 | CNS(=O)(=O)Cc1ccc2[nH]cc(CCN(C)C)c2c1 [Sumatriptan] | > 400 µM | 248.3 µM | compound metabolized [5]: 30%
46 | NCCS(=O)(=O)O [Taurine] | > 800 µM | > 800 µM | –
47 | Cc1c(C)c2c(c(C)c1O)CCC(C)(COc1ccc(CC3SC(=O)NC3=O)cc1)O2 (centres unmarked) [Troglitazone] | 6.0 µM | 3.4 µM | induction of mitochondrial swelling (in words) [4]: unable to trigger; induction of cytochrome c release (in words) [3]: unable to trigger
48 | C[C@@H]1O[C@@H](OC[C@H]2O[C@@H](Oc3c(-c4ccc(OCCO)c(OCCO)c4)oc4cc(OCCO)cc(O)c4c3=O)[C@H](O)[C@@H](O)[C@@H]2O)[C@H](O)[C@H](O)[C@H]1O [Troxerutin] | 170.5 µM | > 400 µM | –
49 | CCCC(CCC)C(=O)O [Valproic acid] | 44.9 µM | 267.2 µM | –
50 | Cc1cn([C@H]2C[C@H](N=[N+]=[N-])[C@@H](CO)O2)c(=O)[nH]c1=O [Zidovudine] | – | 416.1 µM | effect on oxygen consumption (in words) [1]: increased oxygen consumption
